Assay results: PMC8857470, “Molecular insights into the maturation of phosphodiesterase 6 by the specialized chaperone complex of HSP90 with AIPL1” (The Journal of Biological Chemistry, 2022)

Target: T1, AIPL1 (full-length mouse AIPL1) (Mus musculus, UniProt Q924K1)
T1 construct: full-length (aa 1-328), His6-tagged from pET15b, expressed in E. coli BL21(DE3), purified by Ni-NTA, Mono Q and SEC; prenyl site in the FKBP domain
T1 sequence (Q924K1 1-328): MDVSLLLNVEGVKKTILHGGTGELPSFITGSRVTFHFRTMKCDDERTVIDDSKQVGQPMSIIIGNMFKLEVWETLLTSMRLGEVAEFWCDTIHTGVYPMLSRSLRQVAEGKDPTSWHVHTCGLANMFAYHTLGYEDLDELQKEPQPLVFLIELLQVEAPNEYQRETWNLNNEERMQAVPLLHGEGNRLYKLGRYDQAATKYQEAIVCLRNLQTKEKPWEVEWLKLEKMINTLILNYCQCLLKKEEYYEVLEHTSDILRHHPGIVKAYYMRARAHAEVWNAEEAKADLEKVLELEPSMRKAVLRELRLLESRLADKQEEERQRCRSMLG
Experiment: fluorescence titration, ex […] nm, em […] nm, fit with ligand depletion
Assay type: binding

## CC(C)=CCC/C(C)=C/CC/C(C)=C/CSC[C@H](NC(=O)CCCCCNC(=O)Cc1c(C)c2ccc(N)cc2oc1=O)C(=O)O [farnesyl-Cys-AMCA]
  Kd: 0.7 ± 0.1 µM
